According to US20140082772A1, “Herbicide-Tolerant Plants” (priority 2010, published 2014):

How the values were obtained:
[1] = system: AHAS-inhibitor susceptible WOSR line; assay: Plot pre-emergence crop tolerance (PHYTOX), Example 4, susceptible line; assay type: in vivo, Brassica napus
Experimental: (§1) Plants of an AHAS-inhibitor tolerant WOSR line and plants of an AHAS-inhibitor susceptible WOSR line are sown side by side in a plot. A pre-emergence treatment of herbicides is applied to the plants by means of fine distributed nozzles. There are four replications of each treatment.
(§2) The evaluation for crop-tolerance is assessed as PHYTOX symptom caused by the chemical compounds carried out using a scale from 0 to 100%, compared to the untreated control plants. Here, 0 means no damage and 100 means complete destruction of the plants.

[2] = system: AHAS-inhibitor tolerant WOSR line; assay: Plot pre-emergence crop tolerance (PHYTOX), Example 4, tolerant line; assay type: in vivo, Brassica napus
Experimental: as §1, §2

[3] = system: first AHAS-inhibitor susceptible WOSR line; assay: Greenhouse post-emergence herbicide crop damage, Example 1, susceptible line; assay type: in vivo, Brassica napus; conditions: post-emergence at GS/BBCH 12, assessed 21-22 DAT
Experimental: (§3) Each pot is planted with two plants, the plants are watered from beneath and fertilized according there requirement. The pots are stored side by side in a greenhouse at 12° C. at the emergence phase. The temperature increases to 15-20° C. three weeks after sowing.
(§4) A post-emergence treatment of herbicides is applied to the plants by means of fine distributed nozzles and a water use rate of 200 L/ha at the growth stage GS/BBCH 12 (2 true leaf stage). The herbicides are tested at different rates. Five cultivar replicates are carried out per rate.
(§5) The evaluation of efficacy is assessed as crop damage caused by the herbicides using a scale from 0 to 100%, compared to the untreated control plants. Here, 0 means no damage and 100 means complete destruction of the plants. The level of efficacy is assessed 21-22 days after treatment (DAT). The efficacy results are presented as ED50 values.

[4] = system: AHAS-inhibitor tolerant WOSR line; assay: Greenhouse post-emergence herbicide crop damage, Example 2, tolerant line; assay type: in vivo, Brassica napus; conditions: post-emergence at GS/BBCH 10, assessed 19 DAT
Experimental: as §3, with “Plants of an AHAS-inhibitor tolerant WOSR line and plants of a second AHAS-inhibitor susceptible WOSR line are sown in 10 cm pots with a sandy loam. Each” for “Each”
(§6) A post-emergence treatment of herbicides is applied to the plants by means of fine distributed nozzles and a water use rate of 200 L/ha at the growth stage GS/BBCH 10. The herbicides are tested at different rates. Twelve cultivar replicates are carried out per rate.
as §5, with “19” for “21-22”

[5] = system: AHAS-inhibitor tolerant WOSR line; assay: Greenhouse post-emergence herbicide crop damage, Example 1, tolerant line; assay type: in vivo, Brassica napus; conditions: post-emergence at GS/BBCH 12, assessed 21-22 DAT
Experimental: as §3, §4, §5

[6] = system: second AHAS-inhibitor susceptible WOSR line; assay: Greenhouse post-emergence herbicide crop damage, Example 2, susceptible line; assay type: in vivo, Brassica napus; conditions: post-emergence at GS/BBCH 10, assessed 19 DAT
Experimental: as §3, with “Plants of an AHAS-inhibitor tolerant WOSR line and plants of a second AHAS-inhibitor susceptible WOSR line are sown in 10 cm pots with a sandy loam. Each” for “Each”
as §6
as §5, with “19” for “21-22”

AHAS-tolerant SOSR line = assay: Plot post-emergence crop tolerance (PHYTOX), Example 3, SOSR; assay type: in vivo, Brassica napus; conditions: post-emergence at GS 12/13, 15 DAT, crop GS 13/14, AI rate g/ha: flupyrsulfuron-methyl-sodium 5, thifensulfuron-methyl 15, tritosulfuron 25, tribenuron-methyl 15
Experimental: as §1, with “AHAS-tolerant SOSR” for “AHAS-inhibitor susceptible WOSR”, “post-emergence” for “pre-emergence”, “nozzles at the growth stage GS/BBCH 12/13.” for “nozzles.”
as §2

[7] = system: AHAS-inhibitor tolerant WOSR line; assay: Plot post-emergence crop tolerance (PHYTOX), Example 3, WOSR; assay type: in vivo, Brassica napus; conditions: post-emergence at GS 12/13, 15 DAT, crop GS 14/15, AI rate g/ha: flupyrsulfuron-methyl-sodium 5, thifensulfuron-methyl 15, tritosulfuron 25, tribenuron-methyl 15
Experimental: as §1, with “AHAS-tolerant SOSR” for “AHAS-inhibitor susceptible WOSR”, “post-emergence” for “pre-emergence”, “nozzles at the growth stage GS/BBCH 12/13.” for “nozzles.”
as §2

[8] = system: spring-type B. napus cultivar, 45A77; conditions: PM-mutant gene-containing spring-type cultivar 45A77; R. Degenhardt et al., Weed Technology 19, 2005, 608; cited from earlier work
[9] = 10 DAT, crop GS 10/11, AI rate g/ha: propoxycarbazone 7, sulfosulfuron 2, flupyrsulfuron-methyl 1.8, amidosulfuron 2.75
[10] = 29 DAT, crop GS 11/13, AI rate g/ha: propoxycarbazone 7, sulfosulfuron 2, flupyrsulfuron-methyl 1.8, amidosulfuron 2.75

Row | Compound | PHYTOX % [1, 9] | PHYTOX % [1, 10] | PHYTOX % [2, 9] | PHYTOX % [2, 10] | ED50 (crop damage, scale 0 to 100% vs untreated control) [3] | ED50 (crop damage, scale 0 to 100% vs untreated control) [4] | ED50 (crop damage, scale 0 to 100% vs untreated control) [5] | ED50 (crop damage, scale 0 to 100% vs untreated control) [6] | PHYTOX % (AHAS-tolerant SOSR line) | PHYTOX % [7] | effect of application on the crop [8]
1 | COc1cc(OC)nc(NC(=O)NS(=O)(=O)N(C)S(C)(=O)=O)n1 [Amidosulfuron] | 100% | 100% | 0% | 0% |  |  |  |  |  |  | 
2 | COc1nc(C)nc(NC(=O)NS(=O)(=O)c2ccccc2Cl)n1 [Chlorsulfuron] |  |  |  |  | 0.42 g/ai/ha | 11.2 g/ai/ha | 2.8 g/ai/ha | 0.04 g/ai/ha |  |  | 
3 | COc1ncc(F)c2nc(S(=O)(=O)Nc3c(F)cccc3F)nn12 [Florasulam] |  |  |  |  | 1.51 g/ai/ha | 4.9 g/ai/ha | 6.53 g/ai/ha | 0.28 g/ai/ha |  |  | 
4 | COC(=O)c1ccc(C(F)(F)F)nc1S(=O)(=O)NC(=O)Nc1nc(OC)cc(OC)n1 [Flupyrsulfuron-methyl-sodium] |  |  |  |  | 0.58 g/ai/ha | 147.97 g/ai/ha | 63316.17 g/ai/ha | 0.79 g/ai/ha | 19% | 11% | 
5 | COC(=O)c1ccc(C(F)(F)F)nc1S(=O)(=O)NC(=O)Nc1nc(OC)cc(OC)n1 [Flupyrsulfuron-methyl] | 100% | 100% | 0% | 0% |  |  |  |  |  |  | 
6 | COC(=O)c1ccccc1S(=O)(=O)NC(=O)Nc1nc(C)nc(OC)n1 [Metsulfuron-methyl] |  |  |  |  | 0.57 g/ai/ha | 2.28 g/ai/ha | 5.06 g/ai/ha | 0.17 g/ai/ha |  |  | 
7 | CCCOc1nn(C(=O)[N-]S(=O)(=O)c2ccccc2C(=O)OC)c(=O)n1C.[Na+] [Propoxycarbazone-sodium] |  |  |  |  | 2.16 g/ai/ha | 42.07 g/ai/ha | 67.43 g/ai/ha | 0.17 g/ai/ha |  |  | 
8 | CCCOc1nn(C(=O)[N-]S(=O)(=O)c2ccccc2C(=O)OC)c(=O)n1C.[Na+] [Propoxycarbazone] | 100% | 100% | 0% | 0% |  |  |  |  |  |  | 
9 | CCS(=O)(=O)c1nc2ccccn2c1S(=O)(=O)NC(=O)Nc1nc(OC)cc(OC)n1 [Sulfosulfuron] | 99% | 99% | 0% | 0% | 1.70 g/ai/ha | 3.29 g/ai/ha | 2417.06 g/ai/ha | 0.01 g/ai/ha |  |  | 
10 | COC(=O)c1sccc1S(=O)(=O)NC(=O)Nc1nc(C)nc(OC)n1 [Thifensulfuron-methyl] |  |  |  |  |  |  |  |  | 23% | 13% | 
11 | COC(=O)c1ccccc1S(=O)(=O)NC(=O)N(C)c1nc(C)nc(OC)n1 [Tribenuron-methyl] |  |  |  |  | 2.59 g/ai/ha | 9.11 g/ai/ha | 25.88 g/ai/ha | 0.11 g/ai/ha | 25% | 17% | 
12 | COc1nc(NC(=O)NS(=O)(=O)c2ccccc2C(F)(F)F)nc(C(F)(F)F)n1 [Tritosulfuron] |  |  |  |  | 0.39 g/ai/ha | 2.96 g/ai/ha | 42.30 g/ai/ha | 1.76 g/ai/ha | 53% | 43% | 
13 | COc1nc(C)nc(NC(=O)NS(=O)(=O)c2ccsc2C(=O)O)n1 [thifensulfuron] |  |  |  |  |  |  |  |  |  |  | reduced canola biomass, herbicide injury symptoms, or delayed maturity
14 | Trisulfuron-methyl [Trisulfuron-methyl 500] |  |  |  |  | 3.36 g/ai/ha | 4.48 g/ai/ha | 41.81 g/ai/ha | 0.03 g/ai/ha |  |  | 
